Three compounds from ChEMBL document CHEMBL4184315, “Discovery of Inhibitor of Wnt Production 2 (IWP-2) and Related Compounds As Selective ATP-Competitive Inhibitors of Casein Kinase 1 (CK1) δ/ε” (J Med Chem, 2018) can be followed below.

Each structure is given as a SMILES string. Activity calls are given as the source filed them. No cut-off for these calls is given here.

Data set [1] has as its system HEK-293T. The experiment in a line: Toxicity in HEK293T cells at 0.5 to 5 uM after 6 to 22 hrs by CellTiter-Glo assay. The settings on record: human. In kind it is cell-based.
Data set [2] has as its target Casein kinase I isoform delta (Rattus norvegicus) (UniProt Q06486). The experiment in a line: Inhibition of full-length rat GST-tagged CK1delta assessed as residual activity at 10 uM using alpha-casein as substrate after 30 mins in presence of [gamma-32P]-ATP by Cherenkov counting method.
Data set [3] has the same target. The experiment in a line: Inhibition of rat recombinant CK1delta kinase domain assessed as residual activity at 10 uM using alpha-casein as substrate after 30 mins in presence of [gamma-32P]-ATP by Cherenkov counting method.
Data set [4] deals with T1, Casein kinase I isoform delta (Rattus norvegicus, UniProt Q06486). As to the kind of experiment: Inhibition of rat recombinant CK1delta kinase domain using alpha-casein as substrate after 30 mins in presence of [gamma-32P]-ATP by Cherenkov counting method.
T1 sequence (Q06486 whole entry, the tested form may be a part, canonical isoform): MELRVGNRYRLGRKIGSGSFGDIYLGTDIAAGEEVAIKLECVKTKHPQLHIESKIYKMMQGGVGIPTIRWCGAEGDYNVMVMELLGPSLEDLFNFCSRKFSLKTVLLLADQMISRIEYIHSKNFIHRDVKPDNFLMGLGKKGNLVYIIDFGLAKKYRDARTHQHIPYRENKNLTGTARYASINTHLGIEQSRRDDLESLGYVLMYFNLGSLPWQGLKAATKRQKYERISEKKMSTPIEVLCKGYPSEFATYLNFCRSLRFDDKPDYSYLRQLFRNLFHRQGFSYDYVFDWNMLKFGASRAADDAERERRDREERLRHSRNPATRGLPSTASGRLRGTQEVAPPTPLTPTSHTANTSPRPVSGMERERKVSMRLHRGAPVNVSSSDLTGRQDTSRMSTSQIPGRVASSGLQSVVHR
For data set [5], the target named is T1, Casein kinase I isoform delta. As to the kind of experiment: Inhibition of full-length rat GST-tagged CK1delta using alpha-casein as substrate after 30 mins in presence of [gamma-32P]-ATP by Cherenkov counting method.
Data set [6] addresses Casein kinase I isoform delta (Rattus norvegicus, UniProt Q06486, M82F). As to the kind of experiment: Inhibition of rat GST-tagged CK1delta M82F mutant at 10 uM using alpha-casein as substrate after 30 mins in presence of [gamma-32P]-ATP by Cherenkov counting method.
In data set [7] the target is Casein kinase I isoform epsilon (Homo sapiens, UniProt P49674). The experiment in a line: Inhibition of human recombinant CK1epsilon using alpha-casein as substrate after 30 mins in presence of [gamma-32P]-ATP by Cherenkov counting method.
Chain of Casein kinase I isoform epsilon (P49674 whole entry, canonical isoform): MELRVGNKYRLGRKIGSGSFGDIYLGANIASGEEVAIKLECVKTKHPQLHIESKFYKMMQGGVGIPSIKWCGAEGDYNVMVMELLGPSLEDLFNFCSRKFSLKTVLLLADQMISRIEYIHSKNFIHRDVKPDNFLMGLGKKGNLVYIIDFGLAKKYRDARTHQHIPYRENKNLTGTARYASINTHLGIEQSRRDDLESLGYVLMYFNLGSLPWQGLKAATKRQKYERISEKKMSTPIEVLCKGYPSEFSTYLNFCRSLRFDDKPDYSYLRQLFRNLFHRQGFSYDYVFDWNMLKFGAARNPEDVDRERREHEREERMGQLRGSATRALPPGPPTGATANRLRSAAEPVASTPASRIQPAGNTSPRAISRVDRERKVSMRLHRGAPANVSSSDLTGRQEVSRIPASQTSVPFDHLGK
Data set [8] can be described thus: Selectivity ratio of IC50 for human CK1epsilon to IC50 for full-length rat GST-tagged CK1delta.
A short description of data set [9]: Selectivity ratio of IC50 for human CK1epsilon to IC50 for rat recombinant CK1delta kinase domain.
For data set [10], the target named is Casein kinase I isoform delta (Rattus norvegicus) (UniProt Q06486). The experiment in a line: Ratio of IC50 for full-length rat GST-tagged CK1delta to IC50 for rat recombinant CK1delta kinase domain.
Chain of Casein kinase I isoform delta (Rattus norvegicus) (Q06486 whole entry, looked up, the tested form may be a part, canonical isoform): as the sequence (Q06486 whole entry, the tested form may be a part, canonical isoform) above
Data set [11] shares this target. The experiment in a line: Competitive inhibition of full-length rat GST-tagged CK1delta at IC50 using alpha-casein as substrate after 30 mins in presence of 10 to 500 uM ATP and [gamma-32P]-ATP by Cherenkov counting method.
The target in data set [12] is T2, Casein kinase I isoform delta (Homo sapiens, UniProt P48730). As to the kind of experiment: Inhibition of human recombinant CK1delta assessed as residual activity at 1 uM after 60 mins in presence of [gamma-33P]-ATP by scintillation counting method.
Target sequence in this assay (P48730 whole entry, looked up, canonical isoform): as the sequence (Q06486 whole entry, the tested form may be a part, canonical isoform) above, with V381I counted along it
The target in data set [13] is Tyrosine-protein kinase ZAP-70 (Homo sapiens) (UniProt P43403). As to the kind of experiment: Inhibition of recombinant human full length GST/His-tagged ZAP70 expressed in Sf9 cells assessed as residual activity at 1 uM after 60 mins in presence of [gamma-33P]-ATP by scintillation counting method.
Chain of Tyrosine-protein kinase ZAP-70 (Homo sapiens) (P43403 whole entry): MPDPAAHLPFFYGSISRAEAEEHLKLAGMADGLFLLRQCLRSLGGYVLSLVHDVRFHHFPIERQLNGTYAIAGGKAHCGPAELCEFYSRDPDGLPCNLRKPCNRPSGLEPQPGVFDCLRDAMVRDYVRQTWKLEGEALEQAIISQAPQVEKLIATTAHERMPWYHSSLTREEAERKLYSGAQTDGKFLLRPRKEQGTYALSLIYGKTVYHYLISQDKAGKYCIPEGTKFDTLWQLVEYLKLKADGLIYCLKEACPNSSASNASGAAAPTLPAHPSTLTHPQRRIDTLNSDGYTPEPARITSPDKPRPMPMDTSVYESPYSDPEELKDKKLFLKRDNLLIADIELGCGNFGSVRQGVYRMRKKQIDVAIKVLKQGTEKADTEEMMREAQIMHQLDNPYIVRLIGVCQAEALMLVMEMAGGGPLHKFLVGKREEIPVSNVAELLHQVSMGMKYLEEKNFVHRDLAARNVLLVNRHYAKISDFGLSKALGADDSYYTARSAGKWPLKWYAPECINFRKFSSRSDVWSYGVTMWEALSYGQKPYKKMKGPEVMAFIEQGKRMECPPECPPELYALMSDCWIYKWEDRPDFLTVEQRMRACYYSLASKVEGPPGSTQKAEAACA
The target in data set [14] is Serine/threonine-protein kinase tousled-like 2 (Homo sapiens) (UniProt Q86UE8). The experiment in a line: Inhibition of recombinant human N-terminal FLAG/C-terminal HIS8-tagged TLK2 assessed as residual activity at 1 uM after 60 mins in presence of [gamma-33P]-ATP by scintillation counting method.
Chain of Serine/threonine-protein kinase tousled-like 2 (Homo sapiens) (Q86UE8 whole entry, looked up): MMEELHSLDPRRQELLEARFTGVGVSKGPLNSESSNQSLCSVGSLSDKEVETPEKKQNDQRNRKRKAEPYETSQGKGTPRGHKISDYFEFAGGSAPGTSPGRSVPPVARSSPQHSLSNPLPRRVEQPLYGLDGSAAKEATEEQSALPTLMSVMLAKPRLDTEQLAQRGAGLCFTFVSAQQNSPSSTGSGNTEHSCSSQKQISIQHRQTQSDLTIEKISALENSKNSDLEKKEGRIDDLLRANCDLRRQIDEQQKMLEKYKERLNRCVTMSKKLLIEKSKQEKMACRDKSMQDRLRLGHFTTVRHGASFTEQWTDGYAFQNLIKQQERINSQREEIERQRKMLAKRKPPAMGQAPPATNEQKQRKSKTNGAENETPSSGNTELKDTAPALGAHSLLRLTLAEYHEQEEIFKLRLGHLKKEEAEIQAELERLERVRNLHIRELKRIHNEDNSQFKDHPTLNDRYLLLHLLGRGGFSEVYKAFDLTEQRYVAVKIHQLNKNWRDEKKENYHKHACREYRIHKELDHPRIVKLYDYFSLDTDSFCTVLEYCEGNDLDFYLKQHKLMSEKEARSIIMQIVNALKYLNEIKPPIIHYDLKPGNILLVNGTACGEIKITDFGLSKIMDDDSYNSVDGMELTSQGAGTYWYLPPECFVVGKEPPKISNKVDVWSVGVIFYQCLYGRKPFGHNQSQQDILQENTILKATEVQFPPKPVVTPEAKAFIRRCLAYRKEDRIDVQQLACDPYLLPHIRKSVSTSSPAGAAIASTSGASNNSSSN
Data set [15] concerns the target Tyrosine-protein kinase ZAP-70 (Homo sapiens) (UniProt P43403). As to the kind of experiment: Inhibition of recombinant human ZAP70 at 5 nM to 10 uM using poly (L-glutamic acid-L-tyrosine) as substrate after 30 mins in presence of [gamma-32P]-ATP by Cherenkov counting method.
Data set [16] has as its target Serine/threonine-protein kinase tousled-like 2 (Homo sapiens) (UniProt Q86UE8). As to the kind of experiment: Inhibition of recombinant human TLK2 at 5 nM to 10 uM using alpha-casein as substrate after 30 mins in presence of [gamma-32P]-ATP by Cherenkov counting method.
The nature of data set [17]: Antiproliferative activity against human A818-6 cells after 48 hrs by MTT assay. In kind it is functional, cell-based. (Formazan colour is commonly taken as a measure of viable cells.)
The test system of another data set is MIA PaCa-2. As to the kind of experiment: Antiproliferative activity against human MIAPaCa2 cells after 48 hrs by MTT assay. It counts as functional, cell-based. The note with it: MIA PaCa-2, 48 h.
The subject of another data set is PANC-1. The experiment in a line: Antiproliferative activity against human PANC1 cells after 48 hrs by MTT assay. In kind it is functional, cell-based. The settings on record: PANC-1, 48 h.
The nature of data set [18]: Antiproliferative activity against human Panc89 cells after 48 hrs by MTT assay. It counts as functional, cell-based.
In another data set the test system is HT-29. The experiment in a line: Antiproliferative activity against human HT-29 cells after 48 hrs by MTT assay. It counts as functional, cell-based. The settings on record: HT-29, 48 h.
For another data set, the system named is HEK293. The experiment in a line: Antiproliferative activity against human HEK293 cells after 48 hrs by MTT assay. In kind it is functional, cell-based. The note with it: HEK293, 48 h.
The test system of another data set is SW-620. The experiment in a line: Antiproliferative activity against human SW620 cells after 48 hrs by MTT assay. It counts as functional, cell-based. The settings on record: SW-620, 48 h.
The next data set deals with CAPAN-1. As to the kind of experiment: Antiproliferative activity against human Capan1 cells after 48 hrs by MTT assay. In kind it is functional, cell-based. The settings on record: CAPAN-1, 48 h.
Data set [19] concerns the target T2, Casein kinase I isoform delta. The experiment in a line: Inhibition of CK1delta in human PANC1 cells assessed as residual activity at 2.33 uM using GST-tagged p53 (1 to 64 residues) as substrate after 48 hrs in presence of [gamma-32P]-ATP by Cherenkov counting method. In kind it is cell-based.
Target sequence in this assay (P48730 whole entry, looked up, canonical isoform): as the sequence (Q06486 whole entry, the tested form may be a part, canonical isoform) above, with V381I counted along it
Data set [20] concerns the target T3, Protein-serine O-palmitoleoyltransferase porcupine (Homo sapiens, UniProt Q9H237).
T3 sequence (Q9H237 whole entry): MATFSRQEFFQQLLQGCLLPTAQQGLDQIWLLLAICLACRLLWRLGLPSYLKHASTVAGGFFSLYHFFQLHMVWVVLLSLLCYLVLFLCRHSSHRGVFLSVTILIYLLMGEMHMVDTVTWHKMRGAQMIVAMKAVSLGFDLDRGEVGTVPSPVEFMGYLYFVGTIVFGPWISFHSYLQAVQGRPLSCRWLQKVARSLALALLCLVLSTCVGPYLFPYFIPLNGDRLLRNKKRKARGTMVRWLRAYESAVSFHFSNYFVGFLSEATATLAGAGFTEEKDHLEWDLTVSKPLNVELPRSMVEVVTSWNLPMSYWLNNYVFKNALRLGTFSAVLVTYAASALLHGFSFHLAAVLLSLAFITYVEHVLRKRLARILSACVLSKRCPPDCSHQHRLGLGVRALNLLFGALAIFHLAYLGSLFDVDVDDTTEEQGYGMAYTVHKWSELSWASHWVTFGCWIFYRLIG
The experiment in a line: Inhibition of porcupine in HEK293T cells transfected with Wnt3A-expressing vector assessed as suppression of Wnt/beta-catenin signaling after 22 hrs by Super-top flash reporter gene assay. In kind it is cell-based. For orientation: In a reporter assay the amount or activity of a reporter protein is the signal.

Data set [21] has as its target T4, Protein-serine O-palmitoleoyltransferase porcupine (Homo sapiens) (UniProt Q9H237).
T4 sequence (whole entry): T3 sequence (Q9H237 whole entry)
The experiment in a line: Inhibition of porcupine in HEK293T cells transfected with Wnt3A-expressing vector assessed as suppression of Wnt/beta-catenin signaling at 5 uM after 22 hrs by Super-top flash reporter gene assay relative to control. In kind it is cell-based.

The species entered for the next data set is Homo sapiens. As to the kind of experiment: Inhibition of Wnt/beta-catenin signaling in HEK293T cells after 22 hrs in presence of Wnt3A-conditioned medium by Super-top flash reporter gene assay. In kind it is cell-based.
The subject of data set [22] is HEK-293T. As to the kind of experiment: Upregulation of renilla luciferase expression in HEK293T cells transfected with Wnt3A-expressing vector up to 5 uM after 22 hrs by luminescence assay relative to control. In kind it is cell-based. The settings on record: human.
For data set [23], the system named is HEK-293T. As to the kind of experiment: Upregulation of renilla luciferase expression in HEK293T cells up to 5 uM after 22 hrs in presence of Wnt3A-conditioned medium by luminescence assay relative to control. It counts as cell-based. The note with it: human.
The target of data set [24] is T2, Casein kinase I isoform delta. The experiment in a line: Inhibition of CK1delta in HEK293T cells assessed as stimulation of Wnt/beta-catenin signaling at 5 uM after 22 hrs in presence of Wnt3A-conditioned medium by Super-top flash reporter gene assay relative to control. In kind it is cell-based.
Target sequence in this assay (P48730 whole entry, looked up, canonical isoform): as the sequence (Q06486 whole entry, the tested form may be a part, canonical isoform) above, with V381I counted along it
The target in data set [25] is T5, Casein kinase I isoform alpha (Bos taurus) (UniProt P67827).
T5 sequence (whole entry): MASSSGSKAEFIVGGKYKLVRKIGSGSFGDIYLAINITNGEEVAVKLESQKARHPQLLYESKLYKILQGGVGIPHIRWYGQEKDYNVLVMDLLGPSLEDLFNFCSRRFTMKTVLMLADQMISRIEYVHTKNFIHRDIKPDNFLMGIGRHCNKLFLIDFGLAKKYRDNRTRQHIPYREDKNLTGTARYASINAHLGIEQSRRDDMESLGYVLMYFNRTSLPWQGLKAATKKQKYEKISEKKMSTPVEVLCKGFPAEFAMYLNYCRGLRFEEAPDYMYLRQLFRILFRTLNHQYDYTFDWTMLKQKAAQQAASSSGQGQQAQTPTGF
The experiment in a line: Inhibition of bovine GST-tagged CK1alpha at 1 uM using alpha-casein as substrate after 30 mins in presence of [gamma-32P]-ATP by Cherenkov counting method.

The target of data set [26] is Casein kinase I isoform gamma-3 (Homo sapiens) (UniProt Q9Y6M4). The experiment in a line: Inhibition of human GST-tagged CK1gamma3 at 1 uM using alpha-casein as substrate after 30 mins in presence of [gamma-32P]-ATP by Cherenkov counting method.
Chain of Casein kinase I isoform gamma-3 (Homo sapiens) (Q9Y6M4 whole entry, looked up, canonical isoform): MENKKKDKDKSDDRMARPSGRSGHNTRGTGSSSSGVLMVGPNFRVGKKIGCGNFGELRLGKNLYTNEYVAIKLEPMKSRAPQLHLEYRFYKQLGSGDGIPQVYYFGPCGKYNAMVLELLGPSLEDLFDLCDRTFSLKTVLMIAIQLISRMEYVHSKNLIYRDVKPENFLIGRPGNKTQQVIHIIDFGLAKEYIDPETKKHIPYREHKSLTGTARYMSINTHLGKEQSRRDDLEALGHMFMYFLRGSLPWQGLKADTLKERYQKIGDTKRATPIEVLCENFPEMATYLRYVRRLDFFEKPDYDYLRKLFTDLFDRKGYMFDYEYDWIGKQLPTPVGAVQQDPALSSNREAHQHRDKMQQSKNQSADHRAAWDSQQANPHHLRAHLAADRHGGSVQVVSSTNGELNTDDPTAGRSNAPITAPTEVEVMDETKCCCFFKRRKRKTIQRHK
The target of data set [27] is T2, Casein kinase I isoform delta. As to the kind of experiment: Inhibition of human recombinant CK1delta at 1 uM after 60 mins in presence of [gamma-33P]-ATP by scintillation counting method.
Target sequence in this assay (P48730 whole entry, looked up, canonical isoform): as the sequence (Q06486 whole entry, the tested form may be a part, canonical isoform) above, with V381I counted along it
Data set [28] shares this target. As to the kind of experiment: Inhibition of CK1delta in HEK293T cells assessed as stimulation of Wnt/beta-catenin signaling after 22 hrs in presence of Wnt3A-conditioned medium by Super-top flash reporter gene assay. In kind it is cell-based.
Target sequence in this assay (P48730 whole entry, canonical isoform): as the sequence (Q06486 whole entry, the tested form may be a part, canonical isoform) above, with V381I counted along it

Chain of Casein kinase I isoform delta (Rattus norvegicus, UniProt Q06486, M82F) (Q06486 whole entry M82F, canonical isoform): as the sequence (Q06486 whole entry, the tested form may be a part, canonical isoform) above, with M82F counted along it

Turning to `Fc1cccc(-n2cnc3c(NCc4nc5ccc(F)c(F)c5[nH]4)nc(N4CCOCC4)nc32)c1`, the Activity result with HEK-293T [1] is reported as “Toxic”.
As for `Cc1ccc2nc(NC(=O)CSc3nc4c(c(=O)n3-c3ccccc3)SCC4)sc2c1`, the Activity in [2] stood at 23%; in [3], 19%; in data set [12] it was 55%; in data set [13], 54%; in data set [14], 59%; in data set [19], 66%. Also, the IC50 – broadly, the concentration that inhibits the measured activity by half – in data set [4] is 0.32 µM; in data set [5], 0.93 µM; in [6], 0.04 µM; in data set [7] it was 4.03 µM; in data set [20] it was 0.157 µM. In addition, the values for the Ratio IC50 in [8], in data set [9] and in [10] were 4 to 7, < 17 and 4, respectively. In addition, in [11], the inhibition result is “Active”. Besides, the inhibition result (in data set [15]; in data set [16]; in the data set listed under Homo sapiens) was “inactive” throughout. Further, the EC50 (as a rule, the concentration needed to bring the measured effect to its halfway point) came to 8.96 µM in [17]; 1.9 µM in the data set on MIA PaCa-2; 2.33 µM in the data set with PANC-1; 3.86 µM in [18]; 4.67 µM in the data set with HT-29; 2.76 µM with HEK293. Further, the EC50 with SW-620 came out at 1.9 µM; in the data set with CAPAN-1, 2.05 µM. For the same compound, in [21], the Imax was found to be 5.5%. Also, the “fold change (FC)” value in the data set on HEK-293T [22] is “<= 1.3”; in the data set on HEK-293T [23] it was “<= 1.5”.
For the compound `COc1ccc(Cn2c(SCC(=O)Nc3nc4ccc(C(F)(F)F)cc4s3)nc3c(c2=O)SCC3)cc1`, the Emax (commonly the maximal effect, on the per cent scale that the assay sets) in data set [24] came to 225%. Moreover, the IC50 in data set [4] came to 0.09 µM; in data set [5], 0.41 µM; in [6], 0.09 µM; in [7], 0.56 µM; in [20], 0.71 µM. In addition, the inhibition entry in [25], in data set [26] and in data set [27] was “Active” each time. In addition, the Imax in [21] worked out at 38.8%. The EC50 in [28] was 1.47 µM. In addition, the “fold change (FC)” value in the data set with HEK-293T [22] is listed as “<= 1.3”; with HEK-293T [23], “<= 1.5”.
